Experimental findings from patent US9771359B1, “Substituted oxazole- and thiazole-based carboxamide and urea derivatives as vanilloid receptor ligands II” (MEDIFRON DBT INC., priority 2014, dated 2017) are described below.

Molecules are shown by their SMILES.

The target in this assay is vanilloid receptor 1 (VR1/TRPV1) (Homo sapiens (Human), UniProt Q8NER1). The assay can be described thus: FLIPR assay, Ca2+ influx in CHO K1 cells transfected with the human VR1 gene. It is filed as cell-based. Conditions: for Ki: displacement of capsaicin 100 nM, Ki from IC50 by Cheng-Prusoff equation, read-out: (f) Ki (human) [nM] Cap; for compound-alone effect on Ca2+ influx (agonist / partial agonist): compound 5 μM, % activation compared with control capsaicin 10 μM. The method, then: Furthermore, preference may be given to compounds according to the first aspect of the invention that cause a 50% displacement of capsaicin, which is present at a concentration of 100 nM, in a FLIPR assay with CHO K1 cells which were transfected with the human VR1 gene at a concentration of less than 2 000 nM, preferably less than 1 000 nM, particularly preferably less than 300 nM, most particularly preferably less than 100 nM, even more preferably less than 75 nM, additionally preferably less than 50 nM, most preferably less than 10 nM. In the process, the Ca^2+ influx is quantified in the FLIPR assay with the aid of a Ca^2+-sensitive dye (type Fluo-4, Molecular Probes Europe BV, Leiden, the Netherlands) in a fluorescent imaging plate reader (FLIPR, Molecular Devices, Sunnyvale, USA), as described hereinafter.
Chain of vanilloid receptor 1 (VR1/TRPV1) (Q8NER1 whole entry): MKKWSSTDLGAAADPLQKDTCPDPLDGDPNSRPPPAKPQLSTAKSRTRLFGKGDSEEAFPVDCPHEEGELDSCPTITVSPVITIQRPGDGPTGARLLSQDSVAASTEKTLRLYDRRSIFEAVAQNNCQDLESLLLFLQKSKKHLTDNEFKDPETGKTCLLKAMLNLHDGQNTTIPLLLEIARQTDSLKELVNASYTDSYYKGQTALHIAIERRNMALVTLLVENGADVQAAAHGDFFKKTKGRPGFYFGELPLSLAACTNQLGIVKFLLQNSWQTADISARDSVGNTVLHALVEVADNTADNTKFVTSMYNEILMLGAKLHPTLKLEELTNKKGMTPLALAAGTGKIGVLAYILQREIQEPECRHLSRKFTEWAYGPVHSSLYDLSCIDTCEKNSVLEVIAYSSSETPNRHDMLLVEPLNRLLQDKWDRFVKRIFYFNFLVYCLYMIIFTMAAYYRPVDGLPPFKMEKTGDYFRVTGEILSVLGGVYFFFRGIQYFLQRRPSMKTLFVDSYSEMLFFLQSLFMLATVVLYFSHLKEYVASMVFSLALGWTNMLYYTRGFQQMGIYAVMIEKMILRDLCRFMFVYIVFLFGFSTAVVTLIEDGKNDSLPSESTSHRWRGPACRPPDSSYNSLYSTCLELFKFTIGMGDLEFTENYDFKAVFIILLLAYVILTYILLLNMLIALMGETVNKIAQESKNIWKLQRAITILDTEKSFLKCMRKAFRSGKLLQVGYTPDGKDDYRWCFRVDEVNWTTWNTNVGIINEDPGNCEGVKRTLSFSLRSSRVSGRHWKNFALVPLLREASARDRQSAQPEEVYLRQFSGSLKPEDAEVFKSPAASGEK
The FLIPR protocol consists of 2 substance additions during a kinetic measurement. First the compounds to be tested (5 μM) are pipetted onto the cells and the Ca^2+ influx is determined in comparison to the control (capsaicin 10 μM), providing the result as % activation and representing the compound-alone effect (calculation at peak signal related to baseline). […] After 5 min incubation, the Ca^2+ influx is related to an injection of 100 nM of capsaicin and thereby the antagonistic effect of the test compounds detected.
Desensitising agonists and antagonists lead to suppression of the Ca^2+ influx. The % inhibition is calculated compared to the maximum achievable inhibition with 10 μM of capsaicin. Triple analyses (n=3) are carried out and repeated in at least 3 independent experiments.
Starting from the percentage displacement caused by different concentrations of the compounds to be tested of general formula I, IC50 inhibitory concentrations which cause a 50-% displacement of capsaicin were calculated. Ki values for the test substances were obtained by conversion by means of the Cheng-Prusoff equation (Cheng, Prusoff; Biochem. Pharmacol. 22, 3099-3108, 1973).
Chinese hamster ovary cells (CHO K1 cells, European Collection of Cell Cultures (ECACC) United Kingdom) are stably transfected with the VR1 gene. For functional testing, these cells are plated out on poly-D-lysine-coated black 96-well plates having a clear base (BD Biosciences, Heidelberg, Germany) at a density of 25,000 cells/well. The cells are incubated overnight at 37° C. and 5% CO2 in a culture medium (Ham's F12 nutrient mixture, 10% by volume of FCS (foetal calf serum), 18 μg/ml of L-proline). The next day the cells are incubated with Fluo-4 (Fluo-4 2 μM, 0.01% by volume of Pluronic F127, Molecular Probes in HBSS (Hank's buffered saline solution), Gibco Invitrogen GmbH, Karlsruhe, Germany) for 30 min at 37° C. Subsequently, the plates are washed three times with HBSS buffer and after further incubation for 15 min at RT used for Ca^2+ measurement in a FLIPR assay. The Ca^2+-dependent fluorescence is measured before and after the addition of the substances to be tested (λex wavelength=488 nm, λem=540 nm). Quantification is carried out by measuring the highest fluorescence intensity (FC, fluorescence counts) over time.

Usually Ki stands for the dissociation constant of the complex between target and ligand, obtained from inhibition or displacement. With `O=C(NCc1oc(C(F)(F)F)nc1-c1cccc(Cl)c1)Nc1ccc(OCCO)nc1` [EX-42, 1-((4-(3-chlorophenyl)-2-(trifluoromethyl)oxazol-5-yl)methyl)-3-(6-(2-hydroxyethoxy)pyridin-3-yl)urea], the Ki turned out to be 103 nM. For the molecule `CC(C)(C)c1nc(-c2cccc(Cl)c2)c(CNC(=O)Nc2ccc(CCO)nc2)s1` [EX-36, 1-((2-(tert-butyl)-4-(3-chlorophenyl)thiazol-5-yl)methyl)-3-(6-(2-hydroxyethyl)pyridin-3-yl)urea], the “compound-alone effect on Ca2+ influx (agonist / partial agonist)” value is reported as “AG (a Ca^2+ influx of >60% relates to a pure agonist (AG))”. Regarding `CC(C(=O)NCc1oc(C(F)(F)F)nc1-c1cccc(Cl)c1)c1ccc(NCCO)nc1` (centres unmarked) [EX-13, N-((4-(3-chlorophenyl)-2-(trifluoromethyl)oxazol-5-yl)methyl)-2-(6-((2-hydroxyethyl)amino)pyridin-3-yl)propanamide], the Ki was determined as 5.2 nM. On to `CC(C(=O)NCc1sc(C(F)(F)F)nc1-c1cccc(Cl)c1)c1cnc(CCS(C)(=O)=O)c(F)c1` (centres unmarked) [EX-12, N-((4-(3-chlorophenyl)-2-(trifluoromethyl)thiazol-5-yl)methyl)-2-(5-fluoro-6-(2-(methylsulfonyl)ethyl)pyridin-3-yl)propanamide], for which the Ki is 1.1 nM. `CC(C)(C)c1nc(-c2cccc(Cl)c2)c(CNC(=O)Nc2ccc3c(c2)OCO3)s1` [EX-50, 1-(benzo[d][1,3]dioxol-5-yl)-3-((2-(tert-butyl)-4-(3-chlorophenyl)thiazol-5-yl)methyl)urea]: the “compound-alone effect on Ca2+ influx (agonist / partial agonist)” value is listed as “pAG (A Ca^2+ influx of 10%-60% reveals a partial agonist (pAG))” and the Ki came out at 5.6 nM. Take `CC(C(=O)NCc1sc(C(F)(F)F)nc1-c1cccc(Cl)c1)c1ccc(NCCO)nc1` (single isomer, unassigned) [EX-15, N-((4-(3-chlorophenyl)-2-(trifluoromethyl)thiazol-5-yl)methyl)-2-(6-((2-hydroxyethyl)amino)pyridin-3-yl)propanamide]: the inhibition constant (Ki) stood at 0.4 nM. Turning to `CC(C(=O)NCc1oc(C(F)(F)F)nc1-c1cccc(Cl)c1)c1cnc(CO)c(F)c1` (centres unmarked) [EX-19, N-((4-(3-chlorophenyl)-2-(trifluoromethyl)oxazol-5-yl)methyl)-2-(5-fluoro-6-(hydroxymethyl)pyridin-3-yl)propanamide], the Ki worked out at 13.8 nM. `CC(C(=O)NCc1oc(C(F)(F)F)nc1-c1cccc(Cl)c1)c1ccc(CNS(N)(=O)=O)c(F)c1` (centres unmarked) [EX-23, N-((4-(3-chlorophenyl)-2-(trifluoromethyl)oxazol-5-yl)methyl)-2-(3-fluoro-4-((sulfamoylamino)methyl)phenyl)propanamide]: the inhibition constant Ki was determined as 4.7 nM.

On to `CC(C)(C)c1nc(-c2cccc(Cl)c2)c(CNC(=O)Nc2ccc(CO)nc2)o1` [EX-25, 1-((2-(tert-butyl)-4-(3-chlorophenyl)oxazol-5-yl)methyl)-3-(6-(hydroxymethyl)pyridin-3-yl)urea], for which the “compound-alone effect on Ca2+ influx (agonist / partial agonist)” value is “pAG (A Ca^2+ influx of 10%-60% reveals a partial agonist (pAG))” and the Ki was found to be 73.1 nM.
